Key:
[1] = molecular target: T1, Histone-lysine N-methyltransferase EZH1 (Homo sapiens) (UniProt Q92800); test: Inhibition of EZH1 (unknown origin) at 10 uM relative to control
T1 sequence (whole entry): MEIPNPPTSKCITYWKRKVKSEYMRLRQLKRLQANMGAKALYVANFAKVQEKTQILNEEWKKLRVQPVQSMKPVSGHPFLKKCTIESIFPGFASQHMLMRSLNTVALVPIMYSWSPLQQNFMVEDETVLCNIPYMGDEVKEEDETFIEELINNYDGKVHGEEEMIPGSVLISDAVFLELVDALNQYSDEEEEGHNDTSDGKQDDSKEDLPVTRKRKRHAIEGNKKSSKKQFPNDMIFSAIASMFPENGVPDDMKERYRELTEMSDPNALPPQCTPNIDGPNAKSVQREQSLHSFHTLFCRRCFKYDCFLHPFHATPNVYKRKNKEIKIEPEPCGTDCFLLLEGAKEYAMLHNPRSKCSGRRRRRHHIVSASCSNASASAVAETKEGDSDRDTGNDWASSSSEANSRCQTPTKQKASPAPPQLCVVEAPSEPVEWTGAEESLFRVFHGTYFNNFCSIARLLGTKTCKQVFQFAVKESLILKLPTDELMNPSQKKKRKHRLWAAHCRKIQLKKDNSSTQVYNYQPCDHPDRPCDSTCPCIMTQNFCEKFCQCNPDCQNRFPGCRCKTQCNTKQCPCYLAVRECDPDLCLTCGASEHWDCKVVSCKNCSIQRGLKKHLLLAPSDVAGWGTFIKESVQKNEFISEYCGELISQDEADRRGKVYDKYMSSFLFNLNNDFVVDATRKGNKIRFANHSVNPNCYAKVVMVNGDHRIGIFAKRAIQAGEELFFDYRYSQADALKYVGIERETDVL

[2] = molecular target: Histone-lysine N-methyltransferase, H3 lysine-36 specific (Homo sapiens) (UniProt Q96L73); test: Inhibition of NSD1 (unknown origin) at 10 uM relative to control
Histone-lysine N-methyltransferase, H3 lysine-36 specific (Homo sapiens), sequence (Q96L73 whole entry): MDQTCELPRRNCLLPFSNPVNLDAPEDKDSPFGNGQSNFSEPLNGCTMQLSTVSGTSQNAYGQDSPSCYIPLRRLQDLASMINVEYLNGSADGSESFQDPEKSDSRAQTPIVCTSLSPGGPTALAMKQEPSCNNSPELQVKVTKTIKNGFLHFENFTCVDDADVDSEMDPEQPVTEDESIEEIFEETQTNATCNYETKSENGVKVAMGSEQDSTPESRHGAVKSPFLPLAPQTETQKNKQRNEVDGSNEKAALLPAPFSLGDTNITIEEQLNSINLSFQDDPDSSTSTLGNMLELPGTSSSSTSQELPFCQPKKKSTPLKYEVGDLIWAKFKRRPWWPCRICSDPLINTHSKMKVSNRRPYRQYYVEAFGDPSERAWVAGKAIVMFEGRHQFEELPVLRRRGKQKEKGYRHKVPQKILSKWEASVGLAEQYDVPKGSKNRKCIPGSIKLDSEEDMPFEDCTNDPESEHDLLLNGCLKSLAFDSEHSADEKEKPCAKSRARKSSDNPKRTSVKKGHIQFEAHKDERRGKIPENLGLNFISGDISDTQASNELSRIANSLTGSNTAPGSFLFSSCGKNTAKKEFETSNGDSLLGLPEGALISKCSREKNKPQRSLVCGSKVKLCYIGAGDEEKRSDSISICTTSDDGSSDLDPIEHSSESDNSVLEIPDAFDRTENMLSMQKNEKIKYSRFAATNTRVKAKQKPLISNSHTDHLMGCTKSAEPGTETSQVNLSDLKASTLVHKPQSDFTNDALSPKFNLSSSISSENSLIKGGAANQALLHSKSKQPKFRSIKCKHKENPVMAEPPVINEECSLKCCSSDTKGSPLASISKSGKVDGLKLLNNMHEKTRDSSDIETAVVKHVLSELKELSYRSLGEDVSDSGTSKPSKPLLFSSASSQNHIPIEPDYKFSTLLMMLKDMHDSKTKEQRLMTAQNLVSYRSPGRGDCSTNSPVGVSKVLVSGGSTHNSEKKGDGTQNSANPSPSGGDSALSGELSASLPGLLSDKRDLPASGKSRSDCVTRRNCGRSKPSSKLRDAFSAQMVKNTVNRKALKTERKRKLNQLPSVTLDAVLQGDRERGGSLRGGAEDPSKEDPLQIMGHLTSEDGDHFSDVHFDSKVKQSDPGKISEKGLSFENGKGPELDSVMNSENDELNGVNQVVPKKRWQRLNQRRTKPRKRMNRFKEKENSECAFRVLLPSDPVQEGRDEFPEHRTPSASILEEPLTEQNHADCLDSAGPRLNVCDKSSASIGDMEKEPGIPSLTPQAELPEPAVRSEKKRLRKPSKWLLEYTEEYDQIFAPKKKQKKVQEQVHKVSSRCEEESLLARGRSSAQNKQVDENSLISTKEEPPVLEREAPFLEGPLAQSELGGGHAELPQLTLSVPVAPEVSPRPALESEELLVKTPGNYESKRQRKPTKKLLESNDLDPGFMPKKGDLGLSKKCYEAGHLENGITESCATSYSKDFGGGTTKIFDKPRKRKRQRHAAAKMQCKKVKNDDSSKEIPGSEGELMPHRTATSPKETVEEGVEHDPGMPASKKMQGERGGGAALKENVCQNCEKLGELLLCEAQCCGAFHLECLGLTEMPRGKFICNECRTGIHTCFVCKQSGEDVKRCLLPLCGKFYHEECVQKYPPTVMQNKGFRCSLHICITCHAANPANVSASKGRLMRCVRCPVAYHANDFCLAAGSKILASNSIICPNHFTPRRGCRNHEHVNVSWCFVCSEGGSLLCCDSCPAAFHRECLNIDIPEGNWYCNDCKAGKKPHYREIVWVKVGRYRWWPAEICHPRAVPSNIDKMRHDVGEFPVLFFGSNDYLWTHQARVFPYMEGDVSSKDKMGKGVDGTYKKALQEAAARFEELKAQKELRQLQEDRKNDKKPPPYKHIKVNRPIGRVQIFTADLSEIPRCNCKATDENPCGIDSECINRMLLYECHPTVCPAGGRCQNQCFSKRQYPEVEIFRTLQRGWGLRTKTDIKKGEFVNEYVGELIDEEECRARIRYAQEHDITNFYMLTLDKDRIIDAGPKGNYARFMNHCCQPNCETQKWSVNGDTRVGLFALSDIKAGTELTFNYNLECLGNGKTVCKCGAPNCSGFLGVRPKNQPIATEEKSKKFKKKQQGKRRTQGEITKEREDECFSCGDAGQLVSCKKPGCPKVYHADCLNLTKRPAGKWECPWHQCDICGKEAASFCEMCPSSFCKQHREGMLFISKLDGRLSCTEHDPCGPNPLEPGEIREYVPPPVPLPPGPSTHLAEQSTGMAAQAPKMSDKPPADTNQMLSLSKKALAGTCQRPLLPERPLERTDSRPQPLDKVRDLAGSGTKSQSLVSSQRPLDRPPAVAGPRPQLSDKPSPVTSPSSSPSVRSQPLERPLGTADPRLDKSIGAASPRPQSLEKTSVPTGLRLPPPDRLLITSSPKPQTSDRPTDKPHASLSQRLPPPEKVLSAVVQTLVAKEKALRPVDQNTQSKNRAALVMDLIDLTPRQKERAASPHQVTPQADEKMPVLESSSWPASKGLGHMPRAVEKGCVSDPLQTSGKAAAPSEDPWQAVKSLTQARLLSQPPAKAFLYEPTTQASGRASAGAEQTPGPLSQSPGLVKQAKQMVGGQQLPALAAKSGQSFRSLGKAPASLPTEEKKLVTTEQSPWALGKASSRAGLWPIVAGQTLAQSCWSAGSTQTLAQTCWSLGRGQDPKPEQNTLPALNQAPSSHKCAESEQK

[3] = molecular target: Protein arginine N-methyltransferase 3 (Homo sapiens) (UniProt O60678); test: Inhibition of PRMT3 (unknown origin) at 10 uM relative to control
Protein arginine N-methyltransferase 3 (Homo sapiens), sequence (O60678 2-531 limits assumed): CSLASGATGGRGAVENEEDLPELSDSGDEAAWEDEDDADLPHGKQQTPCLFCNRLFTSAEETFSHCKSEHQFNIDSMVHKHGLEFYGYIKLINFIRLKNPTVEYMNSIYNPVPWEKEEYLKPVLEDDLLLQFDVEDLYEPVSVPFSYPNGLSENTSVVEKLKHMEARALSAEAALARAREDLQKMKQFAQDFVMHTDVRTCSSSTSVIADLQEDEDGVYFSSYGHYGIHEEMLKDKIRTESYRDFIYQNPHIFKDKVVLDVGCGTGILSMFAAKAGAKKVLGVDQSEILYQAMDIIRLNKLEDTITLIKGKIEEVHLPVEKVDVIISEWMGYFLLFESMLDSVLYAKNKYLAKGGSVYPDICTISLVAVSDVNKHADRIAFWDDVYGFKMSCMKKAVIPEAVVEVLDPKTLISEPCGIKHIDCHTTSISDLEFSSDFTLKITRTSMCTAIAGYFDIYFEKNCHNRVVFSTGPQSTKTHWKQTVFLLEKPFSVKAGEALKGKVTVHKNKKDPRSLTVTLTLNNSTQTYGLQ

[4] = molecular target: Protein arginine N-methyltransferase 6 (Homo sapiens) (UniProt Q96LA8); test: Inhibition of PRMT6 (unknown origin) at 10 uM relative to control
Protein arginine N-methyltransferase 6 (Homo sapiens), sequence (Q96LA8 whole entry, looked up): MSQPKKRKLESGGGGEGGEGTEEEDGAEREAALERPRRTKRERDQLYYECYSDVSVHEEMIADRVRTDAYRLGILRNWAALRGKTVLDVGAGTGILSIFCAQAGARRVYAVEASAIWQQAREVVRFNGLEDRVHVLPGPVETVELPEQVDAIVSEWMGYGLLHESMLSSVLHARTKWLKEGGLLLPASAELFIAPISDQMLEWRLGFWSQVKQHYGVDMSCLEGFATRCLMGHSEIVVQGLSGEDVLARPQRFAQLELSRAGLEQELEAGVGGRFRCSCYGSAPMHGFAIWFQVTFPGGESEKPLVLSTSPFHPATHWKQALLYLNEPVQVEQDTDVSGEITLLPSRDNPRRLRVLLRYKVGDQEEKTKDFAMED

[5] = molecular target: T2, Histone-lysine N-methyltransferase NSD2 (Homo sapiens) (UniProt O96028); test: Inhibition of WHSC1 (unknown origin) at 10 uM relative to control
T2 sequence (whole entry): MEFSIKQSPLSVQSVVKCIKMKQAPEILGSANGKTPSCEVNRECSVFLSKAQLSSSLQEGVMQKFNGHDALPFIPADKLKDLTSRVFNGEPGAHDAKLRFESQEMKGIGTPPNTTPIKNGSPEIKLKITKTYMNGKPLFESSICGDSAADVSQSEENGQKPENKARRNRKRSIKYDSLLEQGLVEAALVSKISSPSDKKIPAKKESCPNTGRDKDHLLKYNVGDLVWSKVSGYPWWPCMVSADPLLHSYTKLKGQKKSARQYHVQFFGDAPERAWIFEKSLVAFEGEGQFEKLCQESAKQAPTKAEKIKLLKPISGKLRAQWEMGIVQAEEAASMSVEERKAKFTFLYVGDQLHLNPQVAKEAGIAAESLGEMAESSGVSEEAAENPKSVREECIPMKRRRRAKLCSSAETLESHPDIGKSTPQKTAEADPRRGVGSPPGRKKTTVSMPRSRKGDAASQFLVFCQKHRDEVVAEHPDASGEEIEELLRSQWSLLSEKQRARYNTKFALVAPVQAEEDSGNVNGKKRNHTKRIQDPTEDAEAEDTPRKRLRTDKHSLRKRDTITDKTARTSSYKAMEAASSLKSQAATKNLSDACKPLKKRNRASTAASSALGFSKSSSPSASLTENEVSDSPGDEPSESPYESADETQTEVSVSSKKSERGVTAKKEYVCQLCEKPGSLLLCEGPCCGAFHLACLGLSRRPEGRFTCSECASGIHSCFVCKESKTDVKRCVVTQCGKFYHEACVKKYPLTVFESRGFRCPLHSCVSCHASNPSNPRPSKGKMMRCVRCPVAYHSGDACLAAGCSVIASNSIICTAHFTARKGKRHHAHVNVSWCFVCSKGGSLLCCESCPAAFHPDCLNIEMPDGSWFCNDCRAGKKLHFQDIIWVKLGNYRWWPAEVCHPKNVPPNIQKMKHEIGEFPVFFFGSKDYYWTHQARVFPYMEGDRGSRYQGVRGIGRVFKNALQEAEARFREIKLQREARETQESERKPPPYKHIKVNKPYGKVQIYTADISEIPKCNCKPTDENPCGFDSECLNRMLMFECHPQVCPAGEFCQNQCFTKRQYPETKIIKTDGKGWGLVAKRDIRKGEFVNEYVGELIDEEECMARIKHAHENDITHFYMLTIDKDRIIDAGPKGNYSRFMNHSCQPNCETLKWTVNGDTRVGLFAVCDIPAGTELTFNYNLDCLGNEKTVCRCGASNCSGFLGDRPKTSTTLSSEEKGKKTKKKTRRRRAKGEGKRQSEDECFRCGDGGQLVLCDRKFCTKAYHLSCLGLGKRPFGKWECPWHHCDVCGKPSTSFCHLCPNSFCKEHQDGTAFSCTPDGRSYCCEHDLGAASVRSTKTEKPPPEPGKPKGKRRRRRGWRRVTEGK

[6] = molecular target: N-lysine methyltransferase SMYD2 (Homo sapiens, UniProt Q9NRG4); test: Inhibition of SMYD2 (unknown origin)
N-lysine methyltransferase SMYD2, sequence (Q9NRG4 whole entry): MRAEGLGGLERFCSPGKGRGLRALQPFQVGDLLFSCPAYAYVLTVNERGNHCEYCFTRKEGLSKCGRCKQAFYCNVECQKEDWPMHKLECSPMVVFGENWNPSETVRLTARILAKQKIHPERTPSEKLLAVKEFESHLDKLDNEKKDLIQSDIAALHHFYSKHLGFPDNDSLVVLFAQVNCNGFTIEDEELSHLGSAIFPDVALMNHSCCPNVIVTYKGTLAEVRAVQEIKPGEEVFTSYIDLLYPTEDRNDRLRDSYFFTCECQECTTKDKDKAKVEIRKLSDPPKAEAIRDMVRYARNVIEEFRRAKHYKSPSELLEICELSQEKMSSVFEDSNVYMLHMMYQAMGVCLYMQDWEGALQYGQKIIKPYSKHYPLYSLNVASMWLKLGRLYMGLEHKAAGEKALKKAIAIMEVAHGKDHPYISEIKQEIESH

O=C1Cc2cc(C(=O)N[C@H]3C[C@H]4CC[C@@H](C3)N4S(=O)(=O)CC3CCN(CCCC(F)(F)F)CC3)c(Cl)cc2N1
> 50 µM: IC50 [6]
< 30%: inhibition [1] | inhibition [2] | inhibition [3] | inhibition [4] | inhibition [5]

O=C1Cc2cc(C(=O)N[C@H]3C[C@H]4CC[C@@H](C3)N4S(=O)(=O)N3CCC(NCc4ccccc4)CC3)c(Cl)cc2N1
< 30%: inhibition [1] | inhibition [2] | inhibition [3] | inhibition [4] | inhibition [5]
> 50 µM: IC50 [6]

— ChEMBL document CHEMBL3797202, “Novel Oxindole Sulfonamides and Sulfamides: EPZ031686, the First Orally Bioavailable Small Molecule SMYD3 Inhibitor” (ACS Med Chem Lett, 2016)
